Laboratory results taken from patent publication US7442776B2, “Cancerous disease modifying antibodies” (priority 1999, dated 2008).

Tests used:
Set-up in all cases: key to the marks not given beside the values
Conditions in all cases: purified antibody or control, 5 days incubation, calcein; four experiments in triplicate
[1] = tested on: MDA-MB-468 (MB-468) breast cancer cell line; assay: Live/Dead cytotoxicity assay
[2] = tested on: CCD-27sk non-cancer cell line
[3] = tested on: PC-3 prostate cancer cell line
[4] = tested on: OVCAR-3 ovarian cancer cell line; assay: Live/Dead cytotoxicity assay
[5] = tested on: SW620 colon cancer cell line; assay: Live/Dead cytotoxicity assay
[6] = tested on: MCF-7 breast cancer cell line
[7] = tested on: MDA-MB-231 (MB-231) breast cancer cell line; assay: Live/Dead cytotoxicity assay
[8] = tested on: NCI-H460 lung cancer cell line; assay: Live/Dead cytotoxicity assay
[9] = tested on: HT-29 colon cancer cell line; assay: Live/Dead cytotoxicity assay
[10] = tested on: SW1116 colon cancer cell line
[11] = tested on: Hs888.Lu non-cancer cell line

Compound	In Vitro Cytotoxicity, MB-468 [1]	In Vitro Cytotoxicity, CCD 27sk [2]	In Vitro Cytotoxicity, PC-3 [3]	In Vitro Cytotoxicity, OVCAR [4]	In Vitro Cytotoxicity, SW620 [5]	In Vitro Cytotoxicity, MCF-7 [6]	In Vitro Cytotoxicity, MB-231 [7]	In Vitro Cytotoxicity, NCI H460 [8]	In Vitro Cytotoxicity, HT-29 [9]	In Vitro Cytotoxicity, SW1116 [10]	In Vitro Cytotoxicity, Hs888 Lu [11]
C[C@@H]1C[C@@H]([C@H](O)CC2CC(=O)NC(=O)C2)C(=O)[C@@H](C)C1 [CHX, Cycloheximide]	+++	+++	+++	+++	++	+++	++	++	+++	+++	+++
[N-]=[N+]=[N-].[Na+] [NaN3]	+++	–	+++	+++	–	+++	+++	+++	+++	++	–
